ChEMBL document CHEMBL4000236, “Nardonaphthalenones A and B from the roots and rhizomes of Nardostachys chinensis Batal” (Bioorg Med Chem Lett, 2017)
The source made the active and inactive calls. The calls are words filed in the database; no cut-off is given here.

What was measured:
Assay type in all cases: cell-based
[1] = biological target: Sodium-dependent serotonin transporter (Homo sapiens) (UniProt P31645); test: Modulation of human SERT expressed in HEK293 cells at 0.1 uM using APP+ as substrate by fluorescence assay relative to control
Chain of Sodium-dependent serotonin transporter (Homo sapiens) (P31645 whole entry, looked up): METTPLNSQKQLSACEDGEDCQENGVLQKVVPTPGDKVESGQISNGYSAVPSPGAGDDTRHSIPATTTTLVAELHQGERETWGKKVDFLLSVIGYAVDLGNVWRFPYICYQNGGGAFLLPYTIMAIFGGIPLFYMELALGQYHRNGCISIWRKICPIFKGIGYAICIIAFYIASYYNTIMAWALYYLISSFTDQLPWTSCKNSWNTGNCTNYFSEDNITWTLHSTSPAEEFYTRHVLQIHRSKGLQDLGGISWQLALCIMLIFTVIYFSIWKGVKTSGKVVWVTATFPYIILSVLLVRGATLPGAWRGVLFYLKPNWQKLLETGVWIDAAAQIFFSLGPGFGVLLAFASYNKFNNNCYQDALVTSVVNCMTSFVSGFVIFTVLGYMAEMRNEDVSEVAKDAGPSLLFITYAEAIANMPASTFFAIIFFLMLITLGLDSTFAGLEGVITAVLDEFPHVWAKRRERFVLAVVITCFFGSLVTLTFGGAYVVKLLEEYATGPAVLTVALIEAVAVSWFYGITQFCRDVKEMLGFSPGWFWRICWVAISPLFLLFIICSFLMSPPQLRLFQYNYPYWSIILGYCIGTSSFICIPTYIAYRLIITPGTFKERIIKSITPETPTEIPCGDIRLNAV

[2] = biological target: Sodium-dependent serotonin transporter (Homo sapiens) (UniProt P31645); test: Modulation of human SERT expressed in HEK293 cells at 10 uM using APP+ as substrate by fluorescence assay relative to control
[3] = biological target: Sodium-dependent serotonin transporter (Homo sapiens) (UniProt P31645); test: Modulation of human SERT expressed in HEK293 cells at 1 uM using APP+ as substrate by fluorescence assay relative to control

SMILES | fold change (FC) [1] | fold change (FC) [2] | fold change (FC) [3] | Activity [1] | Activity [2] | Activity [3]
COC(=O)C1=CO[C@@H](O[C@@H]2O[C@H](CO)[C@@H](O)[C@H](O)[C@H]2O)[C@H]2[C@@H](COC(C)=O)CC[C@H]12 | 0.965 | 0.989 | 1.07 | – | – | –
COC1=CC(C)(C)c2cc(OC)c(C)c(OC)c2C1=O | 1.07 | 1.05 | 1.05 | – | – | –
CC(=O)CC/C=C(C)/C=C/[C@H]1C(C)=CC(=O)CC1(C)C | 1.06 | 1.1 | 1.07 | – | – | –
COC(=O)C1=CO[C@@H](O[C@@H]2O[C@H](CO)[C@@H](O)[C@H](O)[C@H]2O)[C@H]2[C@@H](CO)CC[C@H]12 | – | – | – | inactive | inactive | inactive
CC(=O)/C=C/C1=C(C)CCCC1(C)C | 0.989 | 1.01 | 1.07 | – | – | –
CC(=O)OC[C@H]1O[C@@H](OCC2=CO[C@@H](OC(=O)CC(C)C)C3C2C[C@H](O)[C@H]3CO)[C@H](O)[C@H](O)[C@@H]1O (stereo not given in full) | – | – | – | inactive | inactive | inactive
C[C@H]1CC[C@@H]2C(C(=O)O)=CO[C@@H](O[C@@H]3O[C@H](CO)[C@@H](O)[C@H](O)[C@H]3O)[C@H]21 | 1.05 | 1.07 | 1.08 | – | – | –
C/C1=C\CC[C@@H](C)CCO[C@@H]2O[C@H](CO[C@@H]3OC[C@](O)(COC1=O)[C@H]3O)[C@@H](O)[C@H](O)[C@H]2O | 1.04 | 1.06 | 1.08 | – | – | –
COC1=CC(C)(C)c2cc(OC)c(C)cc2C1=O | 0.956 | 0.942 | 1 | – | – | –
CC(=O)/C=C/C1(O)C(C)(C)CCCC1(C)O (stereo not given) | 0.934 | 1.09 | 1.07 | – | – | –
CN1c2ccccc2C(NCCCCCCC(=O)O)c2ccc(Cl)cc2S1(=O)=O (stereo not given) | – | – | 1.18 | – | – | –
CC(C)CC(=O)OCC1=CO[C@@H](OC(=O)CC(C)C)C2C1CC(=O)[C@H]2C (stereo not given in full) | – | – | – | inactive | inactive | inactive
CC1=CC(=O)CC(C)(C)[C@@H]1CC[C@@H](C)OC(=O)CC(C)C | 1.03 | 1.07 | 1.05 | – | – | –
CC(C)CC(=O)O[C@@H]1OC=C(CO[C@@H]2O[C@H](CO)[C@@H](O)[C@H](O)[C@H]2O)C2C[C@H](O)[C@@H](CO)C21 (stereo not given in full) | 0.975 | 0.933 | 0.981 | – | – | –
